Values belong to the compound of their own block, whether it stands above or below them. Square brackets hold non-standard residues; d marks the D form. Peptide text beside a SMILES is read from it.
Key:
[1] = Peptide stability analysis in human serum (HPLC); type: in vitro ADME; conditions: for half-life at 1 mg/mL: pH 7.4, human serum
Procedure: (§1) Serum was separated by centrifugation (tabletop centrifuge, 3000 rpm, 20 min) of blood obtained from a healthy person. The serum was filtrated using a filter (Millipore) with a pore size of […], and then 50 μl of the human serum was mixed with 100 μg of RLYE (SEQ ID NO: 2), R(D)LYE (SEQ ID NO: 6), RLYE-NH2 (SEQ ID NO: 3) or Ac-RLYE (SEQ ID NO: 1) (100 μg/50 PBS, pH 7.4), and incubated by time at a constant temperature of 37° C. A peptide concentration of the sample was calculated by a peak area after the sample was separated by C18 reverse phase high-performance liquid chromatography (HPLC; Vydac protein and peptide C18 column, 0.1% trifluoroacetate in H2O for equilibration, and 0.1% trifluoroacetate in acetonitrile for elution).

[2] = system: human umbilical cord vascular endothelial cells (HUVECs); type: cell-based
Procedure: Migration analysis for human umbilical cord vascular endothelial cells (HUVECs) was carried out using a Transwell culture plate to which a polycarbonate filter (pore size: 8 μm) with a diameter of 6.5 mm was attached. A surface of the filter was coated with 10 μg of gelatin. Fresh M199 medium (1% fetal bovine serum) containing VEGF (10 ng/ml) was added into a lower compartment of the Transwell plate, HUVECs (1×10^6 cells/100 μl) which had reacted with 0.15 nM or 1.5 nM peptides at room temperature for 30 minutes were carefully transferred to an upper compartment of the plate. The resulting HUVECs were cultured in a CO2-constant temperature and humidity chamber for 4 hours, and the cells migrated under the Transwell filter were stained by H&E staining and quantified using an optical microscope.

Peptide stability in PBS = type: physicochemical; conditions: incubated in PBS at 37° C.
Procedure: as §1
To evaluate RLYE (SEQ ID NO: 2) stability, an RLYE peptide (SEQ ID NO: 2) was added to each of PBS and human serum, and incubated by time at a constant temperature of 37° C.

[3] = system: choroidal neovascularization; test: Laser-induced choroidal neovascularization mouse model; type: in vivo
Procedure: To prepare a laser-induced choroidal neovascularization animal model, a Bruch membrane between a retinal layer and a choroidal layer was destroyed by irradiating the mouse retina with a diode laser at an intensity of 400 mW and a duration of 50 ms, and then choroidal neovascularization occurred over 14 days. The retinas of 6 week-old male C57BL/6 mice were irradiated with a laser under the above conditions, the formation of a lesion was confirmed through a safety inspection on day 10, and 1 μl of a 1.5 mM EYLR (SEQ ID NO: 5), RLYE (SEQ ID NO: 2) or Ac-RLYE (SEQ ID NO: 1) solution was intravitreally injected. Here, the same amount of saline was injected into the control group. After 4 days (14 days after the laser irradiation), an experiment for analyzing a therapeutic effect was carried out by extracting the eyeballs of the mice. The extracted eyeballs were fixed in 4% paraformaldehyde for 12 hours, and embedded in paraffin. Sections with a thickness of 4 μm were prepared from paraffin tissue, and subjected to H&E staining. Afterward, an image of a section with the largest choroidal neovascular membrane area was taken from each subject, and the area of the choroidal neovascular membrane was quantitatively analyzed using ImageJ program (NIH, Bethesda, Md., USA). In the saline-injected control group, the average of the choroidal neovascular areas was represented as 100%, and a therapeutic effect of each treatment group was analyzed. Meanwhile, 1 ml (1.25 mg) of FITC-dextran (250 kDa) was injected into the left ventricle one hour before extraction of the mouse eyeball to allow systemic perfusion. After extraction, the eyeball was fixed in 4% paraformaldehyde for 1 hour. Then, the cornea and the crystalline lens were cut off by scissors, the retina was carefully removed using forceps to prepare a complex of retina pigment epithelium/choroid/sclera tissues. The retina flat-mounted complex tissue was observed under a fluorescence microscope and photographed.

retinal vascular leakage = test: Streptozotocin (STZ)-induced diabetic retinopathy mouse model, retinal vascular leakage; type: in vivo; conditions: STZ diabetic mice
Procedure: A freshly prepared STZ solution (100 mM) in a citrate buffer (100 mM, pH 4.5) was intraperitoneally injected at 150 mg/kg into the mice, and to prevent hypoglycemic shock, 10% sucrose was sufficiently provided. After two days, blood glucose was measured using an Accu-Chek Performa blood glucose meter (Roche Diagnostics GmbH, Germany), and when non-fasting blood glucose within 1 to 2 weeks was maintained at 300 mg/dl or more, the mice were used as diabetic animal models. The diabetes-induced mice were anesthetized with 2% avertin, and 1 μl of a 1.5 mM EYLR (SEQ ID NO: 5), RLYE (SEQ ID NO: 2) or Ac-RLYE (SEQ ID NO: 1) solution was intravitreally injected. Here, the same amount of PBS was injected into the control group. The peptide was injected, and after 24 hours, 1 ml (1.25 mg) of FITC-dextran (250 kDa) was injected into the left ventricle of each mouse to allow circulation for approximately 5 minutes. The mice were euthanized by cervical dislocation, and the eyeballs were extracted and fixed in 4% paraformaldehyde at room temperature for 1 hour. The retina was isolated from the fixed eyeball to prepare a retinal flat mount, and vascular leakage was observed under a confocal microscope. Meanwhile, the fluorescence of FITC-dextran leaked from retinal vessels was measured using Fluoview software.

HUVECs = test: Tube formation of vascular endothelial cells on Matrigel (VEGF-induced); type: cell-based, human
Procedure: A degree of tube formation of HUVECs was determined using growth factor-reduced Matrigel. 250 μl of the Matrigel (10 mg protein/ml) was added into a 24-well plate to allow polymerization for 30 minutes at 37° C. HUVECs cultured in M199 (1% fetal bovine serum) medium for 6 hours were carefully transferred onto the Matrigel in the culture plate at a density of 2×10^5 cells/well, and VEGF (10 ng/ml) were cultured alone or with peptides (0.15 nM) at 37° C. for 20 hours. Meanwhile, peptides that were reacted in PBS or fresh human serum for 3 hours were also used. The degree of tube formation of HUVECs was visualized using an inverted phase-contrast microscope, and a length of the formed tube was measured and quantified by Image-Pro Plus version 4.5 (Media Cybernetics, San Diego, Calif.).

[4] = system: tumor vessels of HCT116 xenograft; test: Measurement of tumor angiogenesis (FITC-isolectin B4 staining); type: in vivo, mouse; conditions: FITC-isolectin B4 staining of tumor tissue
Procedure: Tumor tissue was fixed with 10% formalin, and inserted into paraffin. A slide was prepared using a tumor tissue section, immersed in xylene to remove paraffin, and rehydrated by stepwise treatment with 100%, 95%, 80%, and 70% ethanol. Afterward, the slide was washed with deionized water several times at room temperature. To inhibit the intracellular activity of a peroxidase, the tissue section was reacted in 0.3% hydrogen peroxide-containing methanol for 15 minutes, and washed with PBS three times. The tissue section was reacted in 3% goat serum-containing PBS for 2 hours at room temperature, and reacted with FITC-isolectin B4 ([…]; Vector Laboratories) for 1 hour. The tissue section was washed with PBS three times and then a permanent slide was prepared using a cryo-mount solution (OCT mouting medium, Tissue Tek, Sakura Finetek), and then tumor vessels were visualized using a fluorescence microscope.

HCT116 xenograft = test: Human colon cancer (HCT116) xenografted mouse model, tumor size and growth; type: in vivo
Procedure: Human colon cancer cells (HCT116, 1×10^7 cells/100 μl) were subcutaneously injected into the left side of a nude mouse (BALB/c nu/nu, 6 week old, male), and then when a tumor volume reached at least 50 to 70 mm^3 (approx. 7 days), physiological saline (negative control), RLYE (SEQ ID NO: 2) (1.0 mg/kg), R(D)LYE (SEQ ID NO: 6) (1.0 mg/kg) or Ac-RLYE (SEQ ID NO: 1) (1.0 mg/kg; abnormal, experimental group) was intraperitoneally injected once a day. A VEGF neutralizing antibody, bevacizumab, was intraperitoneally injected at 2 mg/kg twice a week (positive control). A tumor size was two-dimensionally measured using calipers. A tumor volume (mm^3) was calculated by the formula: width^2×length×0.52.

[5] = 1 μl of 1.5 mM solution intravitreal, H&E area analysis

Compound: EYLR: reverse-sequence of the RLYE peptide [reference compound]
effect on choroidal neovascularization [3, 5]: had no change

Compound: CC(=O)N[C@@H](CCCNC(=N)N)C(=O)N[C@@H](CC(C)C)C(=O)N[C@@H](Cc1ccc(O)cc1)C(=O)N[C@@H](CCC(=O)O)C(N)=O [Ac-RLYE-NH2] (Ac-RLYE-NH2)
IC50 [2]: 80200 pM

Compound: CC(=O)N[C@@H](CCCNC(=N)N)C(=O)N[C@@H](CC(C)C)C(=O)N[C@@H](Cc1ccc(O)cc1)C(=O)N[C@@H](CCC(=O)O)C(=O)O [Ac-RLYE] (Ac-RLYE-OH; C-terminus assumed)
choroidal neovascularization inhibition compared with RLYE [3, 5]: highly effective compared to RLYE
effect on choroidal neovascularization [3, 5]: effectively reduced
choroidal neovascularization inhibition compared with RLYE, retinal flat mount ([3]; FITC-dextran, retinal flat mount technique): higher effect of inhibiting choroidal neovascularization than RLYE
half-life at 1 mg/mL ([1]; 37° C.): 8.8 h
effect on retinal vascular leakage (retinal vascular leakage; 1 μl of 1.5 mM solution intravitreal, 24 hours): effectively inhibited
inhibitory effect on retinal vascular leakage compared with RLYE (retinal vascular leakage; intravitreal): higher inhibitory effect on blood vascular leakage than RLYE
inhibition of VEGF-induced tube formation (HUVECs; peptides pretreated with PBS for 3 hours): effectively inhibited
inhibition of VEGF-induced tube formation (HUVECs; peptides pretreated with human serum for three hours): effectively inhibited
effect of inhibiting cancer angiogenesis compared with RLYE [4]: higher than that of RLYE
anticancer effect compared with RLYE (HCT116 xenograft; 1.0 mg/kg/day intraperitoneal, HCT116 nude mouse): higher than that of RLYE
effect on size and growth of tumor (HCT116 xenograft; 1.0 mg/kg/day intraperitoneal, once a day, HCT116 nude mouse): inhibited the size and growth of a tumor
anticancer effect compared with bevacizumab (HCT116 xenograft; peptide 1.0 mg/kg/day i.p., bevacizumab 2.0 mg/kg twice a week): a little lower than that of the positive control bevacizumab
IC50 [2]: 50 pM

Now from value to compound, other results behind:

half-life at 1 mg/mL ([1]; 37° C.): 7 h
Compound: CC(C)C[C@H](NC(=O)[C@H](N)CCCNC(=N)N)C(=O)N[C@@H](Cc1ccc(O)cc1)C(=O)N[C@@H](CCC(=O)O)C(=O)O [R(D)LYE] (H-[dR]LYE-OH; N-terminus and C-terminus assumed)
IC50 [2]: 60 pM

RLYE degradation induced by albumin ([1]; albumin added, 37° C.): did not induce
RLYE degradation by human serum with bestatin ([1]; aminopeptidase B inhibitor bestatin added): effectively inhibited
half-life at 1 mg/mL ([1]; 37° C.): 1.2 h
degradation in PBS (Peptide stability in PBS): did not occur
Compound: CC(C)C[C@H](NC(=O)[C@@H](N)CCCNC(=N)N)C(=O)N[C@@H](Cc1ccc(O)cc1)C(=O)N[C@@H](CCC(=O)O)C(=O)O [RLYE, Arg-Leu-Tyr-Glu, reference compound] (H-RLYE-OH; N-terminus and C-terminus assumed)
IC50 [2]: 80 pM

half-life at 1 mg/mL ([1]; 37° C.): 1.3 h
Compound: CC(C)C[C@H](NC(=O)[C@@H](N)CCCNC(=N)N)C(=O)N[C@@H](Cc1ccc(O)cc1)C(=O)N[C@@H](CCC(=O)O)C(N)=O [RLYE-NH2] (H-RLYE-NH2; N-terminus assumed)
IC50 [2]: 110 pM
